Where two headings read alike, the source gives them in different places.
Assay: Single ascending oral dose study in healthy volunteers: plasma pharmacokinetics
Type: in vivo, human
Conditions: human, plasma, oral; for concentration at 48 h: 48 Hours Postdose; for concentration at 72 h: 72 Hours Postdose; for concentration at 6 h: 6 Hours Postdose; for concentration at 12 h: 12 Hours Postdose; for concentration at 24 h: 24 Hours Postdose
Description: This example describes the first-in-human study of Compound I. Based on its mechanism of action, Compound I may offer a targeted therapy for patients with DCM caused by genetic or nongenetic mechanisms. The study was a randomized, double-blind, placebo-controlled, sequential group, single-ascending (oral) close study in healthy subjects aged 18-55 years. Eight dosing cohorts, each comprising eight healthy subjects, were enrolled. Within each cohort, subjects were randomized 6:2 to Compound I:placebo.
Subjects were resident at the clinical site for up to 5 days and 4 nights, from Day −1 (the day before dosing) to Day 4, and received a single dose of Compound I or placebo on Day 1. ECG telemetry was initiated 1 hour preclose and continued through 48 hours postclose (Day 3). Any subject with a preclose resting HR≥80 beats per minute was considered ineligible and not treated. […] Subjects returned for a safety follow-up visit 7 days (±1 day) after dosing.
All randomized study subjects received either Compound I or matching placebo as a single oral dose after a fasting period of at least 6 hours. Compound I drug substance is a crystalline, free-base, synthetic molecule with a molecular weight of 435.4 g/mol.
Compound I was provided as a powder for oral suspension. Placebo was provided as calcium carbonate powder. Both treatments were closed orally as a suspension. The suspension was made using Ora-Plus® suspending vehicle (Perrigo) and a cherry syrup flavoring vehicle (Humco), mixed 50% to 50%. The suspension was followed by approximately 100 mL water. The suspension was made up within 14 days from the time in which it was closed which was consistent with the stability data on the suspension. The suspension was made up so the volume administered to the subjects who received Compound I was the same at 20 mL.
Each subject received a close according to the cohort in which they were enrolled. Cohorts were enrolled sequentially, with each cohort receiving an escalated dose of Compound I. The closes administered were 3 mg, 10 mg, 25 mg, 50 mg, 100 mg, 175 mg, 350 mg, and 525 mg, respectively.
The concentrations of Compound I in human plasma and urine were quantitated by high performance liquid chromatography with tandem mass spectrometric detection (LC MS/MS) (Biological sample analysis study report Alturas AD17-726). Plasma samples were extracted by protein precipitation with acetonitrile containing internal standard MYK-5654. The calibration curves were linear over concentration range of 0.500 to 1000 ng/mL with a lower limit of quantification (LLOQ) of 0.500 ng/mL.
The PK Population included all subjects who received Compound I. Blood samples were collected for PK assessments. The actual timing of the samples may have been modified and/or up to an additional 2 samples may have been requested by the SRC after review of the data from previous cohorts. It was important that PK sampling occurred as closely as possible to the scheduled time (±10%). Both blood and urine samples were used for PK assessments.
In addition, for subjects who received placebo, a single plasma sample near the predicted tmax of Compound I was evaluated to confirm the lack of circulating Compound I. Plasma concentration data for Compound I was summarized using descriptive statistics, including mean, standard deviation (SD), median, minimum, and maximum values, and percent coefficient of variation. Other PK parameters included (but were not limited to) Cmax, tmax, AUC, t1/2, and MRT. Additionally, the apparent terminal-phase terminal half-life was calculated. The close proportionality of AUC and Cmax was explored.

[1] = 10 mg, 10 mg, read-out: Plasma concentration, Median
[2] = 25 mg, 25 mg, read-out: Plasma concentration, Geometric Mean
[3] = 25 mg, 25 mg, read-out: Plasma concentration, Mean
[4] = 25 mg, 25 mg, read-out: Plasma concentration, Median
[5] = 50 mg, 50 mg, read-out: Plasma concentration, Geometric Mean
[6] = 50 mg, 50 mg, read-out: Plasma concentration, Mean
[7] = 50 mg, 50 mg, read-out: Plasma concentration, Median

Which results are given for `Cn1cc(S(=O)(=O)[C@@](C)(F)C2CCN(C(=O)Nc3ccon3)CC2)c(C(F)F)n1` [Compound I, (R)-4-(1-((3-(difluoromethyl)-1-methyl-1H-pyrazol-4-yl)sulfonyl)-1-fluoroethyl)-N-(isoxazol-3-yl)piperidine-1-carboxamide]?
concentration at 48 h [1]: 15.4 ng/mL; concentration at 72 h (10 mg, 10 mg, read-out: Plasma concentration, Geometric Mean): 4.5 ng/mL; concentration at 72 h (10 mg, 10 mg, read-out: Plasma concentration, Mean): 4.93 ng/mL; concentration at 72 h [1]: 4.01 ng/mL; AUC(0-t) (10 mg, read-out: AUC0-24, Geometric Mean): 2120 ng·h/mL; AUC(0-t) (10 mg, read-out: AUC0-24, Mean): 2140 ng·h/mL; AUC(0-t) (10 mg, read-out: AUC0-24, Median): 2250 ng·h/mL; AUC(0-t) (10 mg, read-out: AUC0-48, Geometric Mean): 2980 ng·h/mL; AUC(0-t) (10 mg, read-out: AUC0-48, Mean): 3030 ng·h/mL; AUC(0-t) (10 mg, read-out: AUC0-48, Median): 3190 ng·h/mL; AUC(0-t) (10 mg, read-out: AUC0-last, Geometric Mean): 3280 ng·h/mL; AUC(0-t) (10 mg, read-out: AUC0-last, Mean): 3350 ng·h/mL; AUC(0-t) (10 mg, read-out: AUC0-last, Median): 3420 ng·h/mL; AUC(0-inf) (10 mg, read-out: AUC0-∞, Geometric Mean): 3350 ng·h/mL; AUC(0-inf) (10 mg, read-out: AUC0-∞, Mean): 3410 ng·h/mL; AUC(0-inf) (10 mg, read-out: AUC0-∞, Median): 3480 ng·h/mL; Cmax (10 mg, read-out: Cmax, Geometric Mean): 138 ng/mL; Cmax (10 mg, read-out: Cmax, Mean): 139 ng/mL; Cmax (10 mg, read-out: Cmax, Median): 146 ng/mL; half-life (10 mg, read-out: Half-Life Lambda Z, Geometric Mean (converted)): 13.2 h; half-life (10 mg, read-out: Half-Life Lambda Z, Mean (converted)): 13.4 h; half-life (10 mg, read-out: Half-Life Lambda Z, Median (converted)): 12.9 h; MRT (10 mg, read-out: Mean Residence Time, Geometric Mean): 21.1 h; MRT (10 mg, read-out: Mean Residence Time, Mean): 21.2 h; MRT (10 mg, read-out: Mean Residence Time, Median): 20.1 h; Tmax (10 mg, read-out: Tmax, Geometric Mean): 4.8 h; Tmax (10 mg, read-out: Tmax, Mean): 4.85 h; Tmax (10 mg, read-out: Tmax, Median): 5 h; Vd/F (10 mg, read-out: Vz/F, Geometric Mean): 57.1 L; Vd/F (10 mg, read-out: Vz/F, Mean): 58.5 L; Vd/F (10 mg, read-out: Vz/F, Median): 55.8 L; concentration at 6 h [2]: 281 ng/mL; concentration at 6 h [3]: 286 ng/mL; concentration at 6 h [4]: 286 ng/mL; concentration at 12 h [2]: 205 ng/mL; concentration at 12 h [3]: 211 ng/mL; concentration at 12 h [4]: 223 ng/mL; concentration at 24 h [2]: 114 ng/mL; concentration at 24 h [3]: 118 ng/mL; concentration at 24 h [4]: 124 ng/mL; concentration at 48 h [2]: 33.3 ng/mL; concentration at 48 h [3]: 35.8 ng/mL; concentration at 48 h [4]: 35.5 ng/mL; concentration at 72 h [2]: 8.4 ng/mL; concentration at 72 h [3]: 9.78 ng/mL; concentration at 72 h [4]: 8.51 ng/mL; AUC(0-t) (25 mg, read-out: AUC0-24, Geometric Mean): 4550 ng·h/mL; AUC(0-t) (25 mg, read-out: AUC0-24, Mean): 4650 ng·h/mL; AUC(0-t) (25 mg, read-out: AUC0-24, Median): 4850 ng·h/mL; AUC(0-t) (25 mg, read-out: AUC0-48, Geometric Mean): 6320 ng·h/mL; AUC(0-t) (25 mg, read-out: AUC0-48, Mean): 6500 ng·h/mL; AUC(0-t) (25 mg, read-out: AUC0-48, Median): 6890 ng·h/mL; AUC(0-t) (25 mg, read-out: AUC0-last, Geometric Mean): 6920 ng·h/mL; AUC(0-t) (25 mg, read-out: AUC0-last, Mean): 7160 ng·h/mL; AUC(0-t) (25 mg, read-out: AUC0-last, Median): 7420 ng·h/mL; AUC(0-inf) (25 mg, read-out: AUC0-∞, Geometric Mean): 7050 ng·h/mL; AUC(0-inf) (25 mg, read-out: AUC0-∞, Mean): 7290 ng·h/mL; AUC(0-inf) (25 mg, read-out: AUC0-∞, Median): 7570 ng·h/mL; Cmax (25 mg, read-out: Cmax, Geometric Mean): 298 ng/mL; Cmax (25 mg, read-out: Cmax, Mean): 304 ng/mL; Cmax (25 mg, read-out: Cmax, Median): 313 ng/mL; half-life (25 mg, read-out: Half-Life Lambda Z, Geometric Mean (converted)): 13.1 h; half-life (25 mg, read-out: Half-Life Lambda Z, Mean (converted)): 13.3 h; half-life (25 mg, read-out: Half-Life Lambda Z, Median (converted)): 12.7 h; MRT (25 mg, read-out: Mean Residence Time, Geometric Mean): 20.6 h; MRT (25 mg, read-out: Mean Residence Time, Mean): 20.8 h; MRT (25 mg, read-out: Mean Residence Time, Median): 20.1 h; Tmax (25 mg, read-out: Tmax, Geometric Mean): 4.64 h; Tmax (25 mg, read-out: Tmax, Mean): 4.67 h; Tmax (25 mg, read-out: Tmax, Median): 5 h; Vd/F (25 mg, read-out: Vz/F, Geometric Mean): 67.3 L; Vd/F (25 mg, read-out: Vz/F, Mean): 68.6 L; Vd/F (25 mg, read-out: Vz/F, Median): 66.5 L; concentration at 6 h [5]: 424 ng/mL; concentration at 6 h [6]: 431 ng/mL; concentration at 6 h [7]: 420 ng/mL; concentration at 12 h [5]: 317 ng/mL; concentration at 12 h [6]: 322 ng/mL; concentration at 12 h [7]: 297 ng/mL; concentration at 24 h [5]: 175 ng/mL; concentration at 24 h [6]: 178 ng/mL; concentration at 24 h [7]: 174 ng/mL; concentration at 48 h [5]: 49.5 ng/mL; concentration at 48 h [6]: 51.9 ng/mL; concentration at 48 h [7]: 57.4 ng/mL; concentration at 72 h [5]: 13.5 ng/mL; concentration at 72 h [6]: 15.2 ng/mL; concentration at 72 h [7]: 18.8 ng/mL; AUC(0-t) (50 mg, read-out: AUC0-24, Geometric Mean): 7210 ng·h/mL; AUC(0-t) (50 mg, read-out: AUC0-24, Mean): 7300 ng·h/mL; AUC(0-t) (50 mg, read-out: AUC0-24, Median): 6730 ng·h/mL; AUC(0-t) (50 mg, read-out: AUC0-48, Geometric Mean): 9930 ng·h/mL; AUC(0-t) (50 mg, read-out: AUC0-48, Mean): 10100 ng·h/mL; AUC(0-t) (50 mg, read-out: AUC0-48, Median): 9500 ng·h/mL; AUC(0-t) (50 mg, read-out: AUC0-last, Geometric Mean): 11100 ng·h/mL; AUC(0-t) (50 mg, read-out: AUC0-last, Mean): 11200 ng·h/mL; AUC(0-t) (50 mg, read-out: AUC0-last, Median): 11200 ng·h/mL; AUC(0-inf) (50 mg, read-out: AUC0-∞, Geometric Mean): 11200 ng·h/mL; AUC(0-inf) (50 mg, read-out: AUC0-∞, Mean): 11300 ng·h/mL; AUC(0-inf) (50 mg, read-out: AUC0-∞, Median): 11200 ng·h/mL; Cmax (50 mg, read-out: Cmax, Geometric Mean): 490 ng/mL; Cmax (50 mg, read-out: Cmax, Mean): 500 ng/mL; Cmax (50 mg, read-out: Cmax, Median): 470 ng/mL; half-life (50 mg, read-out: Half-Life Lambda Z, Geometric Mean (converted)): 13.4 h; half-life (50 mg, read-out: Half-Life Lambda Z, Mean (converted)): 13.6 h; half-life (50 mg, read-out: Half-Life Lambda Z, Median (converted)): 13.8 h; MRT (50 mg, read-out: Mean Residence Time, Geometric Mean): 20.8 h; MRT (50 mg, read-out: Mean Residence Time, Mean): 21 h; MRT (50 mg, read-out: Mean Residence Time, Median): 21.5 h; Tmax (50 mg, read-out: Tmax, Geometric Mean): 4.66 h; Tmax (50 mg, read-out: Tmax, Mean): 4.69 h; Tmax (50 mg, read-out: Tmax, Median): 5 h; Vd/F (50 mg, read-out: Vz/F, Geometric Mean): 86.6 L
